{
  "source": "PubChem BioAssay AID1259338",
  "about": "(Broad Institute, 2017)",
  "note": "Calls of active or inactive are those of the source.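 Rule for the calls: active = compounds lowering the signal with a fitted AC50 at or below a set concentration limit; inconclusive = flat curve with 30 to 70% inhibition, or a poor fit; inactive = the rest.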",
  "data": [
    {"target": "Caspase recruitment domain-containing protein 9 (Homo sapiens) + E3 ubiquitin-protein ligase TRIM62 (Homo sapiens) (UniProt Q9H257+Q9BVG3)", "sequence (Q9BVG3 whole entry, looked up, the tested form may be a part)": "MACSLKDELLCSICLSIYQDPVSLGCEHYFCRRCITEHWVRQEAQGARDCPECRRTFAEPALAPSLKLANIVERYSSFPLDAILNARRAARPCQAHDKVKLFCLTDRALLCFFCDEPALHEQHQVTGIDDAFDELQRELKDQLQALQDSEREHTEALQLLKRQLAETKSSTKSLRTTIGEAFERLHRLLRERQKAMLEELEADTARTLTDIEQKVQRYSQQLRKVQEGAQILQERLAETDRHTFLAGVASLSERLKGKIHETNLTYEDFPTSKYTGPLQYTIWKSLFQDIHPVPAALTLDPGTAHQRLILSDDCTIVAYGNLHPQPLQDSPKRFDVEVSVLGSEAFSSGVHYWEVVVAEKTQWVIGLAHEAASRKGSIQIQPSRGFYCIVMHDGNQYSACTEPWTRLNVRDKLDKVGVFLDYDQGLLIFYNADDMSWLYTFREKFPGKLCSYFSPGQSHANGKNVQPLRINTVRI", "sequence (Q9H257 whole entry, looked up, the tested form may be a part)": "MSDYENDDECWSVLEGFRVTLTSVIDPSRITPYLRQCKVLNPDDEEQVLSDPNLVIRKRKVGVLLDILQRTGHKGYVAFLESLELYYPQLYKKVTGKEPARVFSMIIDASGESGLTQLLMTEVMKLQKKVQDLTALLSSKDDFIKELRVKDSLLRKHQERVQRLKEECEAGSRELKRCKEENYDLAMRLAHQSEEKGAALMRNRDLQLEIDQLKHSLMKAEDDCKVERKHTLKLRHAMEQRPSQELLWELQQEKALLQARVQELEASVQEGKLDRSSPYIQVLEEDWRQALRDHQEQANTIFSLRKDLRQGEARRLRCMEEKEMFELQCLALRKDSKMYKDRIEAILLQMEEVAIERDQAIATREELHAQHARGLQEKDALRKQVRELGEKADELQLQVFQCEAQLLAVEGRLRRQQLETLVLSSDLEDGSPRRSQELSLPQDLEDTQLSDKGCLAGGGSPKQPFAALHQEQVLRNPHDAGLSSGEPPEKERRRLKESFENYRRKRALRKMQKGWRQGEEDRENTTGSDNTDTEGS", "test": "disruptors of CARD9-TRIM62 binding, dose response, cell lysate, HEK293FT lysates, Luminex bead readout (AID 1259338); for activity change, negative = inhibition: reference of the scale not given here", "conditions": "Luminex bead PPI, MFI", "values": [
      {"smiles": "O=C(O)C1Oc2cc3ccccc3cc2O1", "AC50": "68.9 µM"},
      {"smiles": "NC(=O)C1(N2CCCCC2)CCN(c2ncc(NC(=O)c3ccc(F)cc3)cc2C(=O)O)CC1", "AC50": "44.2 µM"},
      {"smiles": "Cc1ccc(N2NC(c3ccc(Br)cc3)=CCC2=O)cc1", "AC50": "50.9 µM"},
      {"smiles": "CCc1ccc(Nc2nc(C(=O)NCc3ccc(N(C)C)cc3)nc3ccccc23)cc1", "AC50": "49 µM"},
      {"smiles": "NC(=O)C1(N2CCCCC2)CCN(c2ncc(NC(=O)c3ccccc3F)cc2C(=O)O)CC1", "AC50": "18 µM"},
      {"smiles": "O=C(NCCCN1CCOCC1)c1cc(-c2ccco2)nc2ccccc12", "AC50": "41.8 µM"},
      {"smiles": "Nc1c(C(=O)NCc2ccco2)c2nc3ccccc3nc2n1CCN1CCOCC1", "AC50": "> 160 µM (inactive)"},
      {"smiles": "OCc1ccc(O)c2ncccc12", "AC50": "23.5 µM"},
      {"smiles": "c1ccc(-c2nc(-c3ccco3)n3ccccc23)cc1", "AC50": "> 76 µM (inactive)"},
      {"smiles": "COc1ccc(S(=O)(=O)Nc2ccc3c(c2)C(=O)N([C@H](C)CO)C[C@H](C)[C@@H](CN(C)CC2CCCCC2)OCCCC[C@H](C)O3)cc1", "AC50": "> 160 µM (inactive)"},
      {"smiles": "Cc1cncc(-c2ccc(S(N)(=O)=O)cc2F)c1", "AC50": "53.4 µM"},
      {"smiles": "O=C(NCc1cccnc1)c1ccccc1-c1nc(-c2ccccc2)no1", "AC50": "> 160 µM (inactive)"}
    ]},
    {"target": "Caspase recruitment domain-containing protein 9 (Homo sapiens) + E3 ubiquitin-protein ligase TRIM62 (Homo sapiens) (UniProt Q9H257+Q9BVG3)", "test": "disruptors of CARD9-TRIM62 binding, dose response, cell lysate, HEK293FT lysates, Luminex bead readout (AID 1259338); for activity change, negative = inhibition: reference of the scale not given here", "conditions": "Luminex bead PPI, MFI, at 38 µM (top of the series)", "values": [
      {"smiles": "Cc1ccc(C)n1Nc1nc(O)cs1", "activity change, negative = inhibition": "inactive"},
      {"smiles": "Cc1cccc(Nc2nc(C(=O)Nc3cc(F)ccc3F)nc3ccccc23)c1", "activity change, negative = inhibition": "inactive"}
    ]},
    {"target": "Caspase recruitment domain-containing protein 9 (Homo sapiens) + E3 ubiquitin-protein ligase TRIM62 (Homo sapiens) (UniProt Q9H257+Q9BVG3)", "test": "disruptors of CARD9-TRIM62 binding, dose response, cell lysate, HEK293FT lysates, Luminex bead readout (AID 1259338); for activity change, negative = inhibition: reference of the scale not given here", "conditions": "Luminex bead PPI, MFI, at 80 µM (top of the series)", "values": [
      {"smiles": "CS(=O)(=O)N1CCN(c2ccc([N+](=O)[O-])c(SCc3ccco3)c2)CC1", "activity change, negative = inhibition": "inactive"},
      {"smiles": "C[C@H](CO)N1C[C@H](C)[C@@H](CN(C)CC2CCCCC2)OCCCC[C@H](C)Oc2ccc(NS(=O)(=O)c3cn(C)cn3)cc2C1=O", "activity change, negative = inhibition": "inactive"},
      {"smiles": "Cn1nnnc1SCCNCc1ccc(-c2cccc(C(F)(F)F)c2)o1", "activity change, negative = inhibition": "inactive"},
      {"smiles": "FC(F)(F)c1cc(Cl)c2nnc(C(F)(F)Cl)n2c1", "activity change, negative = inhibition": "inactive"},
      {"smiles": "Cc1ccc(-c2cc(C(=O)Nc3ccccn3)c3ccccc3n2)o1", "activity change, negative = inhibition": "inactive"},
      {"smiles": "Cc1nc2ccccc2nc1CSCc1ccco1", "activity change, negative = inhibition": "inactive"},
      {"smiles": "O=C(Nc1nc(-c2ccco2)c(-c2ccco2)s1)c1ccco1", "activity change, negative = inhibition": "inactive"},
      {"smiles": "O=[N+]([O-])c1ccc2nn(Cc3ccccc3)cc2c1", "activity change, negative = inhibition": "inactive"},
      {"smiles": "COc1ccc(Nc2nc(-c3nnc(-c4ccc(F)cc4)o3)nc3ccccc23)cc1Cl", "activity change, negative = inhibition": "inactive"},
      {"smiles": "CCN1CCOC(=O)C1CC(=O)Nc1cccc(C)c1", "note": "(stereo not drawn)", "activity change, negative = inhibition": "inactive"},
      {"smiles": "O=c1oc(-c2ccccc2)nc2sc3c(c12)CCC3", "activity change, negative = inhibition": "inactive"},
      {"smiles": "COc1ccc(N2Cc3cccc(C(=O)NC(C)CCc4ccco4)c3C2=O)cc1", "note": "(stereo not drawn)", "activity change, negative = inhibition": "inactive"},
      {"smiles": "Cc1cccc(NC(=O)Cc2coc3ccc4ccccc4c23)n1", "activity change, negative = inhibition": "inactive"},
      {"smiles": "CC(=O)Nc1ccc2nc3c(=O)n(C)c(=O)n(C)c3nc2c1", "activity change, negative = inhibition": "inactive"},
      {"smiles": "Cc1ccc(Nc2nc(C(=O)Nc3ccc(Br)cc3)nc3ccccc23)cc1", "activity change, negative = inhibition": "inactive"},
      {"smiles": "O=C(Nc1ccon1)c1cc2cccnc2n(Cc2ccccc2)c1=O", "activity change, negative = inhibition": "inactive"},
      {"smiles": "N#Cc1c2ccc(OCC(=O)NCc3ccco3)cc2n2ccccc12", "activity change, negative = inhibition": "inactive"},
      {"smiles": "O=C(O)C(c1ccccc1)C(c1ccccc1)c1ccccc1", "note": "(stereo not drawn)", "activity change, negative = inhibition": "inactive"},
      {"smiles": "O=C(COc1cccnc1[N+](=O)[O-])c1ccc(Cl)s1", "activity change, negative = inhibition": "inactive"},
      {"smiles": "COc1ccc(F)c(CN2C[C@H]3CC[C@@H]2CN(Cc2cscn2)C3)c1", "activity change, negative = inhibition": "inactive"},
      {"smiles": "C[C@H](CO)N1C[C@H](C)[C@@H](CN(C)CC2CCCCC2)OCCCC[C@H](C)Oc2ccc(NS(=O)(=O)c3cccs3)cc2C1=O", "activity change, negative = inhibition": "inactive"},
      {"smiles": "O=C1CS/C(=N\\N=C\\c2ccco2)N1c1ccccc1", "activity change, negative = inhibition": "inactive"},
      {"smiles": "CC(=O)Nc1ccc(Nc2nc(-c3nnc(-c4cccc(C)c4)o3)nc3ccccc23)cc1", "activity change, negative = inhibition": "inactive"},
      {"smiles": "Cc1ccc(Cc2cnc(N)s2)o1", "activity change, negative = inhibition": "inactive"}
    ]}
  ]
}
